Laboratory results taken from ChEMBL document CHEMBL1153280, “Synthesis and in vitro activity of dicationic bis-benzimidazoles as a new class of anti-MRSA and anti-VRE agents” (2009).
Converted amounts (≈) assume the structure as drawn.

Experiments:
Type in all cases: functional
[1] = tested on: Bacillus subtilis; assay: Antibacterial activity against Bacillus subtilis ATCC 23857 by NCCLS method
[2] = tested on: Staphylococcus aureus; assay: Antibacterial activity against Staphylococcus aureus ATCC 29213 by NCCLS method
[3] = tested on: Bacteroides fragilis; assay: Antibacterial activity against Bacteroides fragilis ATCC 23745 by NCCLS method
[4] = tested on: Staphylococcus epidermidis; assay: Antibacterial activity against methicillin-resistant Staphylococcus epidermidis ATCC 51625 by NCCLS method
[5] = tested on: Bacillus cereus; assay: Antibacterial activity against Bacillus cereus ATCC 11778 by NCCLS method
[6] = tested on: Enterococcus faecalis; assay: Antibacterial activity against vancomycin-resistant Enterococcus faecalis ATCC 51575 by NCCLS method
[7] = tested on: Enterococcus faecium; assay: Antibacterial activity against vancomycin-resistant Enterococcus faecium ATCC 700221 by NCCLS method
[8] = tested on: Staphylococcus aureus; assay: Antibacterial activity against methicillin-resistant Staphylococcus aureus ATCC 33591 by NCCLS method
[9] = tested on: Staphylococcus epidermidis; assay: Antibacterial activity against Staphylococcus epidermidis ATCC 12228 by NCCLS method
[10] = tested on: Clostridium perfringens; assay: Antibacterial activity against Clostridium perfringens ATCC 10388 by NCCLS method
[11] = tested on: Streptococcus pneumoniae; assay: Antibacterial activity against Streptococcus pneumoniae ATCC 6301 by NCCLS method
[12] = tested on: Staphylococcus aureus; assay: Antibacterial activity against multidrug-resistant Staphylococcus aureus BAA-39 by NCCLS method

Compound | MIC [1] [µg/mL] | MIC [2] [µg/mL] | MIC [3] [µg/mL] | MIC [4] [µg/mL] | MIC [5] [µg/mL] | MIC [6] [µg/mL] | MIC [7] [µg/mL] | MIC [8] [µg/mL] | MIC [9] [µg/mL] | MIC [10] [µg/mL] | MIC [11] [µg/mL] | MIC [12] [µg/mL]
N=C(N)c1ccc2[nH]c(-c3ccc(CCc4ccc(-c5nc6cc(C(=N)N)ccc6[nH]5)cc4)cc3)nc2c1 | 32 (≈ 64.2 µM) | > 32 | > 32 | 32 (≈ 64.2 µM) | > 32 | > 32 | 32 (≈ 64.2 µM) | > 32 | 4 (≈ 8.02 µM) | > 32 | > 32 | > 32
CC(C)NC(=N)c1ccc(CCc2ccc(-c3nc4cc(C(=N)NC(C)C)ccc4[nH]3)cc2)cc1 | 1 (≈ 2.14 µM) | 4 (≈ 8.57 µM) | 32 (≈ 68.6 µM) | 1 (≈ 2.14 µM) | 0.5 (≈ 1.07 µM) | 2 (≈ 4.29 µM) | 1 (≈ 2.14 µM) | 4 (≈ 8.57 µM) | 0.25 (≈ 0.536 µM) | > 32 | 0.12 (≈ 0.257 µM) | 8 (≈ 17.1 µM)
CN[C@H](CC(C)C)C(=O)N[C@H]1C(=O)N[C@@H](CC(N)=O)C(=O)N[C@H]2C(=O)N[C@H]3C(=O)N[C@H](C(=O)N[C@H](C(=O)O)c4cc(O)cc(O)c4-c4cc3ccc4O)[C@H](O)c3ccc(c(Cl)c3)Oc3cc2cc(c3O[C@@H]2O[C@H](CO)[C@@H](O)[C@H](O)[C@H]2O[C@H]2C[C@](C)(N)[C@H](O)[C@H](C)O2)Oc2ccc(cc2Cl)[C@H]1O [VANCOMYCIN] | 0.12 (≈ 0.0828 µM) | – | 4 (≈ 2.76 µM) | – | – | > 64 | > 64 | – | – | 0.12 (≈ 0.0828 µM) | 1 (≈ 0.69 µM) | –
CC(C)NC(=N)c1ccc2[nH]c(-c3ccc(CCc4ccc(-c5nc6cc(C(=N)NC(C)C)ccc6[nH]5)cc4)cc3)nc2c1 | 0.12 (≈ 0.206 µM) | 0.25 (≈ 0.429 µM) | 0.5 (≈ 0.858 µM) | 0.125 (≈ 0.214 µM) | 0.12 (≈ 0.206 µM) | 0.25 (≈ 0.429 µM) | 0.12 (≈ 0.206 µM) | 0.25 (≈ 0.429 µM) | < 0.06 | 0.25 (≈ 0.429 µM) | < 0.06 | 0.5 (≈ 0.858 µM)
N=C(NC1CC1)c1ccc2[nH]c(-c3ccc(CCc4ccc(-c5nc6cc(C(=N)NC7CC7)ccc6[nH]5)cc4)cc3)nc2c1 | 1 (≈ 1.73 µM) | 8 (≈ 13.8 µM) | 32 (≈ 55.3 µM) | 0.25 (≈ 0.432 µM) | 0.25 (≈ 0.432 µM) | 32 (≈ 55.3 µM) | 1 (≈ 1.73 µM) | 8 (≈ 13.8 µM) | 0.12 (≈ 0.207 µM) | 1 (≈ 1.73 µM) | < 0.06 | 16 (≈ 27.6 µM)
CCCCNC(=N)c1ccc2[nH]c(-c3ccc(CCc4ccc(-c5nc6cc(C(=N)NCCCC)ccc6[nH]5)cc4)cc3)nc2c1 | 1 (≈ 1.64 µM) | 4 (≈ 6.55 µM) | 32 (≈ 52.4 µM) | 0.5 (≈ 0.819 µM) | 4 (≈ 6.55 µM) | 32 (≈ 52.4 µM) | 2 (≈ 3.27 µM) | 2 (≈ 3.27 µM) | 0.25 (≈ 0.409 µM) | 0.5 (≈ 0.819 µM) | 1 (≈ 1.64 µM) | 4 (≈ 6.55 µM)
COc1ccc(CCc2ccc(-c3nc4ccc(C(=N)NC(C)C)cc4[nH]3)cc2)cc1 | 4 (≈ 9.7 µM) | 4 (≈ 9.7 µM) | > 32 | 4 (≈ 9.7 µM) | 4 (≈ 9.7 µM) | 32 (≈ 77.6 µM) | 8 (≈ 19.4 µM) | 4 (≈ 9.7 µM) | 4 (≈ 9.7 µM) | 16 (≈ 38.8 µM) | 8 (≈ 19.4 µM) | 8 (≈ 19.4 µM)
CCC(C)NC(=N)c1ccc2[nH]c(-c3ccc(CCc4ccc(-c5nc6cc(C(=N)NC(C)CC)ccc6[nH]5)cc4)cc3)nc2c1 (stereo not given) | 0.25 (≈ 0.409 µM) | 1 (≈ 1.64 µM) | 2 (≈ 3.27 µM) | 0.12 (≈ 0.196 µM) | 0.5 (≈ 0.819 µM) | 2 (≈ 3.27 µM) | 0.5 (≈ 0.819 µM) | 0.25 (≈ 0.409 µM) | < 0.06 | 0.5 (≈ 0.819 µM) | 0.12 (≈ 0.196 µM) | 0.5 (≈ 0.819 µM)
CC(C)NC(=N)c1ccc2[nH]c(-c3ccc(CCc4ccc(-c5nc6cc(C(=N)NC(C)C)ccc6[nH]5)s4)cc3)nc2c1 | 0.5 (≈ 0.849 µM) | 1 (≈ 1.7 µM) | 4 (≈ 6.79 µM) | 0.12 (≈ 0.204 µM) | 0.25 (≈ 0.425 µM) | 0.5 (≈ 0.849 µM) | – | 0.5 (≈ 0.849 µM) | 0.12 (≈ 0.204 µM) | 0.25 (≈ 0.425 µM) | – | 0.5 (≈ 0.849 µM)
